Test results reported in BindingDB's records for doi:10.1016/j.bioorg.2015.09.008 (Gc University, 2015).

Experiments:
Alpha-glucosidase MAL12 = Alpha-glucosidase MAL12 (Saccharomyces cerevisiae (strain ATCC 204508 / S288c), UniProt P53341); test: α-Glucosidase Assay; conditions: pH 6.8
Description: The α-glucosidase inhibition activity was performed with slight modifications according to method. […] Thecontents were mixed, preincubated for 10 min at 37 °C and preread at 400 nm. The reaction was initiated by the addition of 10 µL of 0.5 mM substrate (p-nitrophenyl glucopyranoside, Sigma Inc.). After 30 min of incubation at 37 °C, absorbance of the yellow color produced due to the formation of p-nitrophenol was measured at 400 nm using Synergy HT (BioTek, USA) 96-well microplate reader. Acarbose was used as positive control.

Cholinesterase = Cholinesterase (Homo sapiens, UniProt P06276); test: AChE and BChE Assay; conditions: pH 7.7
Description: (§1) The AChE inhibition assay was performed according to the Ellman's method. Total volume of 100 µL reaction mixture contained 60 µL 50 mM Na2HPO4 buffer, pH 7.7. Ten µL test compound (0.5 mM well#1) was added, followed by the addition of10 µL (0.005 unit well#1 AChE, 0.5 unit well#1 BChE, Sigma Inc.) enzyme. […] The reaction was initiated by the addition of 10 µL of 0.5 mM well#1 substrate (acetylthiocholine iodide or butyrylthiocholine chloride, Sigma Inc.), followed bythe addition of 10 µL DTNB from Sigma Inc. (0.5 mM well#1). After 15 min of incubation at 37 °C, absorbance was measured using 96-well plate reader Synergy HT, Biotek, USA. All experiments were carried out with their respective controls in triplicate.

Acetylcholinesterase = Acetylcholinesterase (Electrophorus electricus, UniProt O42275); test: AChE and BChE Assay; conditions: pH 7.7
Sequence of Acetylcholinesterase (O42275 whole entry): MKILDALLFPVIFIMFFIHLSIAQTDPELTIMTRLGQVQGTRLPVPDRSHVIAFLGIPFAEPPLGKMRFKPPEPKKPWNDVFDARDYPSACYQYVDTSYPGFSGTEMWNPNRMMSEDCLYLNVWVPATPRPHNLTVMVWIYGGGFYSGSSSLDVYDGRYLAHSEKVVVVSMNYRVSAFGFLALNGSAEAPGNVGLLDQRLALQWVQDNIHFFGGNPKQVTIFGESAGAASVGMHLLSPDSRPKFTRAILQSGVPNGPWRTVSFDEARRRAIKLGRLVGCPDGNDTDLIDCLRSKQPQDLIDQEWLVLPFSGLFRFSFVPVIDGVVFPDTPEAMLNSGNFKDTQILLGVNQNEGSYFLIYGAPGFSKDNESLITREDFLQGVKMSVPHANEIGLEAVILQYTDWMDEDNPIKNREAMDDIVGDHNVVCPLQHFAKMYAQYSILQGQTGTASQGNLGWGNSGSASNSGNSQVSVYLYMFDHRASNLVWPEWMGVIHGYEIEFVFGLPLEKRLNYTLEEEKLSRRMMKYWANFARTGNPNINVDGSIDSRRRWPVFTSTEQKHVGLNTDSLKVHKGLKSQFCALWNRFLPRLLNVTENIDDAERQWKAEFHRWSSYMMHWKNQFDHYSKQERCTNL
Description: as §1

Sequence of Alpha-glucosidase MAL12 (P53341 whole entry): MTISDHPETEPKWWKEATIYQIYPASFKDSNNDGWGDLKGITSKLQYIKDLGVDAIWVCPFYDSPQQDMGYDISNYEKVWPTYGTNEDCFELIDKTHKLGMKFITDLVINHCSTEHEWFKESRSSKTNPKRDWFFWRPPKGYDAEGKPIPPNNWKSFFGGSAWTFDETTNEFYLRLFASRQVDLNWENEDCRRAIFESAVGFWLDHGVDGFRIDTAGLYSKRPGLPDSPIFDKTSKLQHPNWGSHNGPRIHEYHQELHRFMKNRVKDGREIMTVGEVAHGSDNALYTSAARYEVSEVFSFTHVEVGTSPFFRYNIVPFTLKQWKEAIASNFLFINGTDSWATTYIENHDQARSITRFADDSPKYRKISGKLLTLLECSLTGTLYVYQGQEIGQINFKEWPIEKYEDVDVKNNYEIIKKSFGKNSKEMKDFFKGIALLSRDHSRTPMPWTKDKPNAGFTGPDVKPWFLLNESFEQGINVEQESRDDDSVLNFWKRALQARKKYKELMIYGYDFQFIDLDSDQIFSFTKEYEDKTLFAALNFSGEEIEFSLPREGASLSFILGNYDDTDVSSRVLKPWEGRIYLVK
Sequence of Cholinesterase (P06276 whole entry): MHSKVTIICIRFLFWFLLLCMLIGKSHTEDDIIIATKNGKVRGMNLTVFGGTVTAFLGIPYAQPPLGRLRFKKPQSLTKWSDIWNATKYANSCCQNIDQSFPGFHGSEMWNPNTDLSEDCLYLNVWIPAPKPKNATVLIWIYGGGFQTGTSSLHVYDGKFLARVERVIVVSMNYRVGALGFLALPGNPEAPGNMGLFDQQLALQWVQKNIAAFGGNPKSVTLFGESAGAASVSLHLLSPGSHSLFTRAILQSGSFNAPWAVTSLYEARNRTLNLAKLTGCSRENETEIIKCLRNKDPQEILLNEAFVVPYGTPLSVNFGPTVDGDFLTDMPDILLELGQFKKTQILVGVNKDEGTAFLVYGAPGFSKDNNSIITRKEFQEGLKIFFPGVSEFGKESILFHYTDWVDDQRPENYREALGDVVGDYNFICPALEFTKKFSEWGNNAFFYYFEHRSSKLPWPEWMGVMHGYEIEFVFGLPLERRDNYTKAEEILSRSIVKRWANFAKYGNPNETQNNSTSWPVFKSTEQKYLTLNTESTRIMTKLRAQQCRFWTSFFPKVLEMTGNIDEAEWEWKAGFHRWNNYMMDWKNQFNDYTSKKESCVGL

IC50 (Alpha-glucosidase MAL12)	SMILES	IC50 (Cholinesterase)	IC50 (Acetylcholinesterase)
125 µM	Cc1ccc(S(=O)(=O)NNC(=O)c2cc(C(=O)NNS(=O)(=O)c3ccc(C)cc3)nc(C(=O)NNS(=O)(=O)c3ccc(C)cc3)c2)cc1 [N',N'',N'''-(pyridine-2,4,6-tricarbonyl)tris(4-methylbenzenesulfonohydrazide) (4e)]	–	–
25.6 µM	O=C(NNS(=O)(=O)c1ccc(F)cc1)c1cc(C(=O)NNS(=O)(=O)c2ccc(F)cc2)nc(C(=O)NNS(=O)(=O)c2ccc(F)cc2)c1 [N',N'',N'''-(pyridine-2,4,6-tricarbonyl)tris(4-fluorobenzenesulfonohydrazide (4c)]	–	–
26.8 µM	O=C(NNS(=O)(=O)c1ccc(Br)cc1)c1cc(C(=O)NNS(=O)(=O)c2ccc(Br)cc2)nc(C(=O)NNS(=O)(=O)c2ccc(Br)cc2)c1 [N',N'',N'''-(pyridine-2,4,6-tricarbonyl)tris(4-bromobenzenesulfonohydrazide) (4b)]	–	–
–	CS(=O)(=O)NNC(=O)c1cc(C(=O)NNS(C)(=O)=O)nc(C(=O)NNS(C)(=O)=O)c1 [N',N'',N'''-(pyridine-2,4,6-tricarbonyl)trimethanesulfonohydrazide (4g)]	44.8 µM	10.8 µM
–	CCS(=O)(=O)NNC(=O)c1cc(C(=O)NNS(=O)(=O)CC)nc(C(=O)NNS(=O)(=O)CC)c1 [N',N'',N'''-(pyridine-2,4,6-tricarbonyl)triethanesulfonohydrazide (4h)]	112 µM	29.1 µM

SMILES	IC50 (Alpha-glucosidase MAL12)	IC50 (Cholinesterase)	IC50 (Acetylcholinesterase)
O=C(NNS(=O)(=O)c1ccc(Cl)cc1)c1cc(C(=O)NNS(=O)(=O)c2ccc(Cl)cc2)nc(C(=O)NNS(=O)(=O)c2ccc(Cl)cc2)c1 [N',N'',N'''-(pyridine-2,4,6-tricarbonyl)tris(4-chlorobenzenesulfonohydrazide (4d)]	28.8 µM	–	–
O=C(NNS(=O)(=O)c1ccccc1)c1cc(C(=O)NNS(=O)(=O)c2ccccc2)nc(C(=O)NNS(=O)(=O)c2ccccc2)c1 [N',N'',N'''-(pyridine-2,4,6-tricarbonyl)tribenzenesulfonohydrazide (4a)]	32.2 µM	43.8 µM	50.2 µM
